According to PubChem BioAssay AID248 (DTP/NCI, 2004):
Several values for one entry are separate records, joined by “and”; a condition that tells them apart may be missing. Equal entries are not always repeated. Inconclusive results and toxic doses are left out. No stated cut-off is given here; in the data, active means T/C of 150% or more; inactive means T/C below 125%.

Tested on: L1210 leukemia ip in BDF1 mice, survival T/C
Test: NCI In Vivo Anticancer Drug Screen. Data for tumor model L1210 Leukemia (intraperitoneal) in B6D2F1 (BDF1) mice
Settings: endpoint: mean survival time, higher = longer survival
In short: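 Ratio derived from survival: compound-dosed mice over vehicle-dosed mice, all bearing a transplantable tumor.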

[1] = dose: 50.0 mg/kg/injection, schedule: Q01DX009 (ip), vehicle: saline
[2] = dose: 100.0 mg/kg/injection, schedule: Q04DX003 (ip), vehicle: saline
[3] = dose: 200.0 mg/kg/injection, schedule: Q04DX003 (ip), vehicle: saline
[4] = dose: 400.0 mg/kg/injection, schedule: Q04DX003 (ip), vehicle: saline
[5] = dose: 100.0 mg/kg/injection, schedule: Q04DX003 (ip), vehicle: saline with Tween-80
[6] = dose: 200.0 mg/kg/injection, schedule: Q04DX003 (ip), vehicle: saline with Tween-80
[7] = dose: 400.0 mg/kg/injection, schedule: Q04DX003 (ip), vehicle: saline with Tween-80
[8] = dose: 100.0 mg/kg/injection, schedule: Q04DX002 (ip), vehicle: Klucel (hydroxypropylcellulose) (HPC)
[9] = dose: 200.0 mg/kg/injection, schedule: Q04DX002 (ip), vehicle: Klucel (hydroxypropylcellulose) (HPC)
[10] = dose: 12.5 mg/kg/injection, schedule: Q01DX009 (ip), vehicle: saline
[11] = dose: 25.0 mg/kg/injection, schedule: Q01DX009 (ip), vehicle: saline
[12] = dose: 25.0 mg/kg/injection, schedule: Q04DX003 (ip), vehicle: saline
[13] = dose: 100.0 mg/kg/injection, schedule: Q01DX009 (ip), vehicle: Klucel (hydroxypropylcellulose) (HPC)
[14] = dose: 200.0 mg/kg/injection, schedule: Q01DX009 (ip), vehicle: Klucel (hydroxypropylcellulose) (HPC)
[15] = dose: 400.0 mg/kg/injection, schedule: Q01DX009 (ip), vehicle: Klucel (hydroxypropylcellulose) (HPC)
[16] = dose: 100.0 mg/kg/injection, schedule: Q01DX001 (ip), vehicle: saline

Measured: T/C

COC(=O)Cc1cc(=O)c2ccccc2[nH]1
inactive: [1] 94 % of control | dose: 100.0 mg/kg/injection, schedule: Q01DX009 (ip), vehicle: saline 103 % of control | [2] 96 % of control | dose: 200.0 mg/kg/injection, schedule: Q01DX009 (ip), vehicle: saline 93 % of control | [3] 96 % of control | [4] 91 % of control

Cc1ccc(N=Cc2ccccc2O)cc1.[Co]
inactive: dose: 100.0 mg/kg/injection, schedule: Q01DX001 (ip), vehicle: other 102 % of control | dose: 200.0 mg/kg/injection, schedule: Q01DX001 (ip), vehicle: other 98 % of control | dose: 400.0 mg/kg/injection, schedule: Q01DX001 (ip), vehicle: other 110 % of control

CC(C)c1ccc(OS(=O)(=O)c2cccc([N+](=O)[O-])c2)cc1
inactive: [5] 100 % of control | [6] 100 % of control | [7] 98 % of control

CCCC(=O)NC1Cc2cc(C)cc(C)c21 (stereo not drawn)
inactive: dose: 50.0 mg/kg/injection, schedule: Q04DX002 (ip), vehicle: Klucel (hydroxypropylcellulose) (HPC) 100 % of control | [8] 111 % of control | [9] 96 % of control

CC(=O)OC12CC[N+]3(C)CCCCC3C1=Nc1ccccc12 (stereo not drawn)
inactive: dose: 6.25 mg/kg/injection, schedule: Q01DX009 (ip), vehicle: saline 98 % of control | dose: 10.0 mg/kg/injection, schedule: Q01DX001 (ip), vehicle: carboxymethylcellulose (CMC) 102 % of control | [10] 102 % of control | dose: 20.0 mg/kg/injection, schedule: Q01DX001 (ip), vehicle: carboxymethylcellulose (CMC) 105 % of control | [11] 102 % of control | [12] 103 % of control | dose: 40.0 mg/kg/injection, schedule: Q01DX001 (ip), vehicle: carboxymethylcellulose (CMC) 100 % of control | dose: 80.0 mg/kg/injection, schedule: Q01DX001 (ip), vehicle: carboxymethylcellulose (CMC) 102 % of control

c1ccc(N/N=C(\c2ccccc2)c2cccs2)cc1
inactive: dose: 100.0 mg/kg/injection, schedule: Q01DX009 (ip), vehicle: saline with Tween-80 97 % of control | [5] 98 % of control | dose: 200.0 mg/kg/injection, schedule: Q01DX009 (ip), vehicle: saline with Tween-80 97 % of control | [6] 104 % of control | dose: 400.0 mg/kg/injection, schedule: Q01DX009 (ip), vehicle: saline with Tween-80 91 % of control | [7] 98 % of control

OC1(C#CC2(O)c3ccccc3-c3ccccc32)c2ccccc2-c2ccccc21
inactive: [13] 93 % of control | dose: 100.0 mg/kg/injection, schedule: Q04DX003 (ip), vehicle: Klucel (hydroxypropylcellulose) (HPC) 106 % of control | [14] 97 % of control | dose: 200.0 mg/kg/injection, schedule: Q04DX003 (ip), vehicle: Klucel (hydroxypropylcellulose) (HPC) 106 % of control | [15] 93 % of control | dose: 400.0 mg/kg/injection, schedule: Q04DX003 (ip), vehicle: Klucel (hydroxypropylcellulose) (HPC) 100 % of control

CCN(CC)CCSC(=O)c1ccc([N+](=O)[O-])cc1
inactive: [16] 98 % of control | dose: 200.0 mg/kg/injection, schedule: Q01DX001 (ip), vehicle: saline 104 % of control

O=C(Nc1ccc(C2=NCCCCN2)cc1)c1ccc(C(=O)Nc2ccc(C3=NCCCCN3)cc2)c(Cl)c1
inactive: dose: 0.12 mg/kg/injection, schedule: Q01DX015 (ip), vehicle: water 101 % of control | dose: 0.25 mg/kg/injection, schedule: Q01DX015 (ip), vehicle: water 101 % of control | dose: 0.5 mg/kg/injection, schedule: Q01DX015 (ip), vehicle: water 100 % of control and 101 % of control | dose: 0.75 mg/kg/injection, schedule: Q01DX015 (ip), vehicle: water 103 % of control

COc1ccc(NC(=O)NCc2ccccc2Cl)c(OC)c1
inactive: [13] 102 % of control | [14] 96 % of control | [15] 98 % of control

N#[N+]c1ccc(Br)cc1-c1nc(N)nc(N)n1
inactive: [10] 92 % of control | [11] 101 % of control | [12] 113 % of control | [1] 100 % of control | dose: 50.0 mg/kg/injection, schedule: Q04DX003 (ip), vehicle: saline 98 % of control | [16] 104 % of control

Cc1ccc(S(=O)(=O)Nc2ccc([N+](=O)[O-])cc2)cc1
inactive: dose: 100.0 mg/kg/injection, schedule: Q01DX001 (ip), vehicle: Klucel (hydroxypropylcellulose) (HPC) 97 % of control | dose: 200.0 mg/kg/injection, schedule: Q01DX001 (ip), vehicle: Klucel (hydroxypropylcellulose) (HPC) 97 % of control | dose: 400.0 mg/kg/injection, schedule: Q01DX001 (ip), vehicle: Klucel (hydroxypropylcellulose) (HPC) 113 % of control

C#CCOS(C)(=O)=O
inactive: dose: 10.0 mg/kg/injection, schedule: Q01DX009 (ip), vehicle: saline 108 % of control | dose: 10.0 mg/kg/injection, schedule: Q04DX002 (ip), vehicle: saline 107 % of control | dose: 20.0 mg/kg/injection, schedule: Q01DX009 (ip), vehicle: saline 124 % of control | dose: 20.0 mg/kg/injection, schedule: Q04DX002 (ip), vehicle: saline 103 % of control | dose: 40.0 mg/kg/injection, schedule: Q04DX002 (ip), vehicle: saline 103 % of control

N#CCC(=O)NCc1cnccn1
inactive: dose: 50.0 mg/kg/injection, schedule: Q01DX005 (ip), vehicle: saline 110 % of control | dose: 100.0 mg/kg/injection, schedule: Q01DX005 (ip), vehicle: saline 104 % of control | [2] 103 % of control | dose: 200.0 mg/kg/injection, schedule: Q01DX005 (ip), vehicle: saline 105 % of control | [3] 103 % of control | dose: 400.0 mg/kg/injection, schedule: Q01DX005 (ip), vehicle: saline 105 % of control | [4] 101 % of control

O=C(COc1ccc(Cl)cc1Cl)Nc1ccc(S(=O)(=O)O)cc1
inactive: [8] 92 % of control | [9] 111 % of control | dose: 400.0 mg/kg/injection, schedule: Q04DX002 (ip), vehicle: Klucel (hydroxypropylcellulose) (HPC) 103 % of control
